Test results taken from US10131652B2, “Pyrimidinyloxy benzene derivatives as herbicides” (E. I. DU PONT DE NEMOURS AND COMPANY, priority 2014, dated 2018).

Experiments:
Test in all cases: Test D pre-/postemergence plant response
Format in all cases: in vivo
[1] = test system: winter wheat (Triticum aestivum); settings: Postemergence; for Plant response rating (scale 0 to 100), Wheat: 16 g ai/ha; for Plant response rating, Wheat: 125 g ai/ha
How it was run: (§1)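 Two application timings were run together: preemergence onto seeded loam–sand pots, and postemergence onto 1- to 4-leaf plants (2 to 18 cm) in peat/vermiculite medium with starter nutrients. Formulation was a non-phytotoxic solvent with surfactant. Ratings, 0 to 100, were made visually versus controls after 13 to 15 greenhouse days.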

[2] = test system: large (Lg) crabgrass (Digitaria sanguinalis); settings: Postemergence; for Plant response rating (scale 0 to 100), Crabgrass, Large: 16 g ai/ha; for Crabgrass, Large plant response rating: 31 g ai/ha, scale 0 to 100 (0 no effect, 100 complete control); for Plant response rating, Crabgrass, Large: scale 0 to 100, 0 no effect, 100 complete control
How it was run: as §1

[3] = test system: blackgrass (Alopecurus myosuroides); settings: Postemergence; for Plant response rating (scale 0 to 100), Blackgrass: 16 g ai/ha; for Blackgrass plant response rating: 31 g ai/ha, scale 0 to 100 (0 no effect, 100 complete control); for Plant response rating, Blackgrass: scale 0 to 100, 0 no effect, 100 complete control
How it was run: as §1

[4] = test system: morningglory (Ipomoea coccinea); settings: Postemergence; for Plant response rating (scale 0 to 100), Morningglory: 16 g ai/ha; for Plant response rating, Morningglory: 125 g ai/ha
How it was run: as §1

[5] = test system: ragweed (common ragweed, Ambrosia elatior); settings: Postemergence; for Plant response rating (scale 0 to 100), Ragweed: 16 g ai/ha; for Plant response rating, Ragweed: 125 g ai/ha
How it was run: as §1

[6] = test system: pigweed (Amaranthus retroflexus); settings: Postemergence; for Plant response rating (scale 0 to 100), Pigweed: 16 g ai/ha; for Plant response rating, Pigweed: 125 g ai/ha
How it was run: as §1

[7] = test system: velvetleaf (Abutilon theophrasti); settings: Postemergence; for Plant response rating (scale 0 to 100), Velvetleaf: 16 g ai/ha; for Plant response rating, Velvetleaf: 125 g ai/ha
How it was run: as §1

[8] = test system: soybean (Glycine max); settings: Postemergence; for Plant response rating (scale 0 to 100), Soybean: 16 g ai/ha; for Plant response rating, Soybean: 125 g ai/ha
How it was run: as §1

[9] = test system: giant foxtail (Setaria faberii); settings: Postemergence; for Plant response rating (scale 0 to 100), Foxtail, Giant: 16 g ai/ha; for Foxtail, Giant plant response rating: 31 g ai/ha, scale 0 to 100 (0 no effect, 100 complete control); for Plant response rating, Foxtail, Giant: scale 0 to 100, 0 no effect, 100 complete control
How it was run: as §1

[10] = test system: galium (catchweed bedstraw, Galium aparine); settings: Postemergence; for Plant response rating (scale 0 to 100), Galium: 16 g ai/ha; for Galium plant response rating: 31 g ai/ha, scale 0 to 100 (0 no effect, 100 complete control); for Plant response rating, Galium: scale 0 to 100, 0 no effect, 100 complete control
How it was run: as §1

[11] = test system: corn (Zea mays); settings: Postemergence; for Plant response rating (scale 0 to 100), Corn: 16 g ai/ha; for Corn plant response rating: 31 g ai/ha, scale 0 to 100 (0 no effect, 100 complete control); for Plant response rating, Corn: scale 0 to 100, 0 no effect, 100 complete control
How it was run: as §1

[12] = test system: johnsongrass (Sorghum halepense); settings: Postemergence; for Plant response rating (scale 0 to 100), Johnsongrass: 16 g ai/ha; for Johnsongrass plant response rating: 31 g ai/ha, scale 0 to 100 (0 no effect, 100 complete control); for Plant response rating, Johnsongrass: scale 0 to 100, 0 no effect, 100 complete control
How it was run: as §1

[13] = test system: lambsquarters (Chenopodium album); settings: Postemergence; for Plant response rating (scale 0 to 100), Lambsquarters: 16 g ai/ha; for Plant response rating, Lambsquarters: 125 g ai/ha
How it was run: as §1

[14] = test system: waterhemp (common waterhemp, Amaranthus rudis); settings: Postemergence; for Plant response rating (scale 0 to 100), Waterhemp: 16 g ai/ha; for Plant response rating, Waterhemp: 125 g ai/ha
How it was run: as §1

[15] = test system: oilseed rape (Brassica napus); settings: Postemergence; for Plant response rating (scale 0 to 100), Oilseed Rape: 16 g ai/ha; for Plant response rating, Oilseed Rape: 125 g ai/ha
How it was run: as §1

[16] = test system: yellow nutsedge (Cyperus esculentus); settings: Postemergence; for Plant response rating (scale 0 to 100), Nutsedge, Yellow: 16 g ai/ha; for Plant response rating, Nutsedge, Yellow: 125 g ai/ha
How it was run: as §1

[17] = test system: Italian ryegrass (Lolium multiflorum); settings: Postemergence; for Plant response rating (scale 0 to 100), Ryegrass, Italian: 16 g ai/ha; for Plant response rating, Ryegrass, Italian: 125 g ai/ha
How it was run: as §1

[18] = test system: barnyardgrass (Echinochloa crus-galli); settings: Postemergence; for Plant response rating (scale 0 to 100), Barnyardgrass: 16 g ai/ha; for Barnyardgrass plant response rating: 31 g ai/ha, scale 0 to 100 (0 no effect, 100 complete control); for Plant response rating, Barnyardgrass: scale 0 to 100, 0 no effect, 100 complete control
How it was run: as §1

[19] = 31 g ai/ha, scale 0 to 100 (0 no effect, 100 complete control)
[20] = 62 g ai/ha, scale 0 to 100, 0 no effect, 100 complete control
[21] = scale 0 to 100, 0 no effect, 100 complete control

Clc1cnc(Oc2ccccc2-c2ccon2)nc1 [Compound 185]
35: Pigweed plant response rating [6, 19] | Pigweed plant response rating [6, 20] | Soybean plant response rating [8, 20] | Plant response rating (scale 0 to 100), Foxtail, Giant [9]
10: Plant response rating, Crabgrass, Large ([2]; 62 g ai/ha) | Plant response rating, Crabgrass, Large ([2]; 125 g ai/ha) | Morningglory plant response rating [4, 20] | Plant response rating (scale 0 to 100), Ragweed [5] | Plant response rating (scale 0 to 100), Pigweed [6] | Velvetleaf plant response rating [7, 19] | Velvetleaf plant response rating [7, 20] | Plant response rating (scale 0 to 100), Lambsquarters [13] | Lambsquarters plant response rating [13, 19]
45: Plant response rating, Soybean [8, 21]
20: Ragweed plant response rating [5, 19] | Plant response rating, Lambsquarters [13, 21]
15: Ragweed plant response rating [5, 20] | Plant response rating (scale 0 to 100), Soybean [8] | Lambsquarters plant response rating [13, 20]
25: Morningglory plant response rating [4, 19] | Plant response rating, Ragweed [5, 21] | Plant response rating, Velvetleaf [7, 21] | Waterhemp plant response rating [14, 19] | Waterhemp plant response rating [14, 20]
30: Soybean plant response rating [8, 19] | Plant response rating, Waterhemp [14, 21] | Plant response rating, Nutsedge, Yellow [16, 21]
50: Plant response rating, Pigweed [6, 21]
0: Plant response rating (scale 0 to 100), Wheat [1] | Wheat plant response rating [1, 19] | Wheat plant response rating [1, 20] | Plant response rating, Wheat [1, 21] | Plant response rating (scale 0 to 100), Crabgrass, Large [2] | Crabgrass, Large plant response rating [2] | Plant response rating (scale 0 to 100), Blackgrass [3] | Blackgrass plant response rating [3] | Plant response rating, Blackgrass ([3]; 62 g ai/ha) | Plant response rating, Blackgrass ([3]; 125 g ai/ha) | Plant response rating (scale 0 to 100), Morningglory [4] | Plant response rating (scale 0 to 100), Galium [10] | Galium plant response rating [10] | Plant response rating (scale 0 to 100), Corn [11] | Corn plant response rating [11] | Plant response rating (scale 0 to 100), Johnsongrass [12] | Johnsongrass plant response rating [12] | Plant response rating (scale 0 to 100), Oilseed Rape [15] | Oilseed Rape plant response rating [15, 19] | Oilseed Rape plant response rating [15, 20] | Plant response rating, Oilseed Rape [15, 21] | Plant response rating (scale 0 to 100), Nutsedge, Yellow [16] | Nutsedge, Yellow plant response rating [16, 19] | Nutsedge, Yellow plant response rating [16, 20] | Plant response rating (scale 0 to 100), Ryegrass, Italian [17] | Ryegrass, Italian plant response rating [17, 19] | Ryegrass, Italian plant response rating [17, 20] | Plant response rating, Ryegrass, Italian [17, 21] | Plant response rating (scale 0 to 100), Barnyardgrass [18] | Barnyardgrass plant response rating [18] | Plant response rating, Barnyardgrass ([18]; 62 g ai/ha)
5: Plant response rating (scale 0 to 100), Velvetleaf [7] | Foxtail, Giant plant response rating [9] | Plant response rating, Foxtail, Giant ([9]; 62 g ai/ha) | Plant response rating, Foxtail, Giant ([9]; 125 g ai/ha) | Plant response rating, Galium ([10]; 62 g ai/ha) | Plant response rating, Galium ([10]; 125 g ai/ha) | Plant response rating, Corn ([11]; 62 g ai/ha) | Plant response rating, Corn ([11]; 125 g ai/ha) | Plant response rating, Johnsongrass ([12]; 62 g ai/ha) | Plant response rating, Johnsongrass ([12]; 125 g ai/ha) | Plant response rating (scale 0 to 100), Waterhemp [14] | Plant response rating, Barnyardgrass ([18]; 125 g ai/ha)
65: Plant response rating, Morningglory [4, 21]

FCc1cc(-c2c(Br)cccc2Oc2ncc(Cl)cn2)no1 [Compound 191]
20: Plant response rating, Crabgrass, Large ([2]; 125 g ai/ha)
40: Ragweed plant response rating [5, 19] | Plant response rating (scale 0 to 100), Galium [10] | Oilseed Rape plant response rating [15, 19]
85: Plant response rating, Morningglory [4, 21] | Plant response rating, Galium ([10]; 62 g ai/ha) | Plant response rating, Galium ([10]; 125 g ai/ha) | Plant response rating, Lambsquarters [13, 21]
10: Crabgrass, Large plant response rating [2] | Plant response rating, Crabgrass, Large ([2]; 62 g ai/ha) | Plant response rating, Corn ([11]; 62 g ai/ha) | Plant response rating, Corn ([11]; 125 g ai/ha) | Plant response rating, Nutsedge, Yellow [16, 21] | Plant response rating, Barnyardgrass ([18]; 125 g ai/ha)
5: Plant response rating (scale 0 to 100), Crabgrass, Large [2] | Plant response rating, Blackgrass ([3]; 125 g ai/ha) | Plant response rating (scale 0 to 100), Foxtail, Giant [9] | Foxtail, Giant plant response rating [9] | Plant response rating, Foxtail, Giant ([9]; 62 g ai/ha) | Plant response rating, Foxtail, Giant ([9]; 125 g ai/ha) | Plant response rating (scale 0 to 100), Corn [11] | Corn plant response rating [11] | Plant response rating (scale 0 to 100), Johnsongrass [12] | Johnsongrass plant response rating [12] | Plant response rating, Johnsongrass ([12]; 62 g ai/ha) | Plant response rating, Johnsongrass ([12]; 125 g ai/ha) | Nutsedge, Yellow plant response rating [16, 19] | Nutsedge, Yellow plant response rating [16, 20] | Plant response rating, Ryegrass, Italian [17, 21] | Plant response rating (scale 0 to 100), Barnyardgrass [18] | Barnyardgrass plant response rating [18] | Plant response rating, Barnyardgrass ([18]; 62 g ai/ha)
65: Plant response rating (scale 0 to 100), Morningglory [4] | Morningglory plant response rating [4, 19] | Plant response rating, Ragweed [5, 21] | Soybean plant response rating [8, 19] | Plant response rating, Waterhemp [14, 21]
60: Morningglory plant response rating [4, 20] | Ragweed plant response rating [5, 20] | Plant response rating, Pigweed [6, 21] | Waterhemp plant response rating [14, 19] | Oilseed Rape plant response rating [15, 20]
25: Plant response rating (scale 0 to 100), Waterhemp [14]
70: Galium plant response rating [10] | Lambsquarters plant response rating [13, 19] | Lambsquarters plant response rating [13, 20] | Waterhemp plant response rating [14, 20]
90: Plant response rating, Oilseed Rape [15, 21]
75: Soybean plant response rating [8, 20]
50: Plant response rating, Velvetleaf [7, 21] | Plant response rating (scale 0 to 100), Lambsquarters [13]
45: Plant response rating (scale 0 to 100), Soybean [8]
15: Plant response rating (scale 0 to 100), Velvetleaf [7]
35: Plant response rating (scale 0 to 100), Pigweed [6]
0: Plant response rating (scale 0 to 100), Wheat [1] | Wheat plant response rating [1, 19] | Wheat plant response rating [1, 20] | Plant response rating, Wheat [1, 21] | Plant response rating (scale 0 to 100), Blackgrass [3] | Blackgrass plant response rating [3] | Plant response rating, Blackgrass ([3]; 62 g ai/ha) | Plant response rating (scale 0 to 100), Oilseed Rape [15] | Plant response rating (scale 0 to 100), Nutsedge, Yellow [16] | Plant response rating (scale 0 to 100), Ryegrass, Italian [17] | Ryegrass, Italian plant response rating [17, 19] | Ryegrass, Italian plant response rating [17, 20]
95: Plant response rating, Soybean [8, 21]
30: Plant response rating (scale 0 to 100), Ragweed [5] | Pigweed plant response rating [6, 19] | Pigweed plant response rating [6, 20] | Velvetleaf plant response rating [7, 19] | Velvetleaf plant response rating [7, 20]
